Measurements: ChEMBL document CHEMBL6177980 (J Med Chem, 2025)
Calls of active or inactive are those of the source. The calls are words filed in the database; no cut-off is given here.

Assays:
[1] = tested on: Severe fever with thrombocytopenia syndrome virus; test: In vivo antiviral activity against SFTSV infected in mouse harboring IFNAR1tm1Agt assessed as improvement in lymphocytes percentage treated orally once daily for 7 days; assay type: functional, organism-based; settings: dose 2.5-100 mg/kg, route po, time 7.0 day
[2] = tested on: Severe fever with thrombocytopenia syndrome virus; test: In vivo antiviral activity against SFTSV infected in mouse harboring IFNAR1tm1Agt assessed as improvement in lymphocytes percentage at 300 mg/kg, po qd treated for 7 days relative to control; assay type: functional, organism-based; settings: time 7.0 day

Row | SMILES | Activity [1] | Activity [2]
1 | CC(C)C(=O)OC[C@@]1(F)O[C@@H](n2ccc(=O)n(COC(=O)c3cccnc3)c2=O)[C@H](OC(=O)C(C)C)[C@@H]1OC(=O)C(C)C | Dose-dependent-effect | 
2 | NC(=O)c1nc(F)cnc1O |  | Active
